Results reported in patent publication US20140051714A1, “Modulators Of The GPR119 Receptor And The Treatment Of Disorders Related Thereto” (ARENA PHARMACEUTICALS, INC., priority 2011, published 2014).

What was measured:
Male 129SVE mice [1] = assay: Oral glucose tolerance test (oGTT) in male 129SVE mice; type: in vivo; conditions: for Plasma Glucose, Mean: n=6
Protocol: Male 129SVE mice (approximately 8 weeks old) were fasted for 18 h and randomly grouped (n=6) to receive a GPR119 agonist (Compound 1) at 3, 10, or 30 mg/kg body weight. The compound was delivered orally via a gavage needle (4 mL/kg) 30 min prior to glucose bolus (3 g/kg) (time=−30 min in FIG. 1), with a separate control group receiving vehicle (20% hydroxypropyl-beta-cyclodextrin (HPCD). At time 0 min, the glucose bolus was administered. Levels of blood glucose were assessed using a glucometer (One-Touch Ultra™, LifeScan) at time −30 min (prior to compound administration), at 0 min (at time when glucose bolus was given), and at 20, 40, 60, 120 min post glucose bolus. The plasma glucose level (Table A) and glucose excursion curve (FIG. 1) are shown. Glucose excursion reduction (area under the curve (AUC)) in compound treated animals relative to vehicle control is given in FIG. 2.

Male 129SVE mice [2] = assay: GIP release in male 129SVE mice (plasma total GIP, ELISA); type: in vivo; conditions: 3 or 30 mg/kg p.o.; blood sample after 45 min
Protocol: Male 129SVE mice (approximately 8 weeks old) were fasted for 18 h and randomly grouped (n=6) to receive a GPR119 agonist (Compound 1) at 3 or 30 mg/kg body weight. Compound 1 was delivered orally via a gavage needle (4 mL/kg), and after 45 min a blood sample was collected to determine plasma total GIP levels. A separate control group received vehicle (PET (80% PEG: 10% Ethanol: 10% Tween80™)). Plasma GIP levels were determined using a GIP (total) ELISA kit from Millipore.

GPR119 receptor = biological target: T1, GPR119 receptor (Homo sapiens, UniProt Q8TDV5); assay: HTRF cAMP detection assay in CHO-K1 cells stably expressing the GPR119 receptor; type: cell-based
T1 construct: expressed in transfected cells
T1 sequence (Q8TDV5 2-335): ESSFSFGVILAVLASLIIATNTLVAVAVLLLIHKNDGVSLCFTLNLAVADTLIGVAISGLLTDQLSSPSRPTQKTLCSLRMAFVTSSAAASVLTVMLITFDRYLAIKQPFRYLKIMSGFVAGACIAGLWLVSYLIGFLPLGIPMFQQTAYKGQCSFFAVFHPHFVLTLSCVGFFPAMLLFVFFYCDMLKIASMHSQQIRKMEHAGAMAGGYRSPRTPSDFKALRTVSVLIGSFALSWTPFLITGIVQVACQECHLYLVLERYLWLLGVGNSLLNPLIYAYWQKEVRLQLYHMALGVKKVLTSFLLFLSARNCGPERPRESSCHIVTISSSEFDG
Protocol: GPR119 agonist, Compound 1, was evaluated in an HTRF® cAMP detection assay (Cisbio, cAMP Dynamic 2 Assay Kit; #62AM4PEJ) according to the manufacturer's instructions using CHO-K1 cells stably expressing the GPR119 receptor. CHO-K1 cells were transduced with a lentiviral vector encoding the nucleotide sequence of GPR119 (NCBI mRNA and protein reference sequences: NM_178471.2 & NP_848566). The N-terminus of the GPR119 nucleotide sequence was modified to replace the first, methionine-coding, codon with a nucleotide sequence coding for a standard, nine amino acid, hemagglutinin tag. Following transduction, cells expressing the GPR119 receptor were isolated and a single clone was isolated following standard dilution-cloning procedures. On the day of the assay, cultured CHO-GPR119 cells were harvested, suspended in assay buffer and plated into 384-well assay plates (PerkinElmer® Proxiplate® #6008280) at a density of 2,000 cells per well. A cAMP standard curve was added to each plate. Compound 1 was dissolved in DMSO, serially diluted in DMSO and then diluted in assay buffer before addition to the cells. Compound 1 was evaluated in triplicate, using 10-point, 5-fold serial dilutions starting at 10 μM. […] Plates were then incubated at room temperature for 1 h prior to reading. Time-resolved fluorescence measurements were collected on PerkinElmer Envision™ or BMG Pherastar™ microplate readers. […]

Male ZDF rats = assay: Oral glucose tolerance test (oGTT) in male ZDF rats; type: in vivo; conditions: for % Inhibition of Glucose Excursion: 60 min prior to glucose bolus (3 g/kg), AUC relative to vehicle control
Protocol: Male ZDF rats were fasted for 18 h and randomly grouped (n=6) to receive the GPR119 agonist Compound 1 at 3, 10, or 30 mg/kg, the control compound Januvia (3 mg/kg), or a combination of Compound 1 (3 mg/kg) and Januvia (3 mg/kg). The compounds were delivered orally via a gavage needle (p.o., volume 4 mL/kg) 60 min prior to glucose bolus (3 g/kg) (time=−60 min in FIG. 4), with a separate group receiving vehicle (20% hydroxypropyl-beta-cyclodextrin (HPCD)) as control. At time 0 min. a glucose bolus was administered. Levels of blood glucose were assessed using a glucometer (One-Touch Ultra™, LifeScan) at time −60 min (prior to compound administration), at 0 min (at time when glucose bolus was given), and at 30, 60, 90, and 120 min post glucose bolus. The plasma glucose excursion curve (FIG. 4) is shown.

Male SD rats = assay: Gastric emptying in male SD rats (stomach content 6 h post-dosing); type: in vivo; conditions: 3, 10, or 30 mg/kg orally
Protocol: Male SD rats were fasted for 18 h and randomly grouped (n=5). Fasted rats were allowed to access food for 30 min, and the amount of food consumed was recorded for each rat. At the end of the 30 min food intake, rats were put in cages without food and water, and dosed with Compound 1 at 3, 10, or 30 mg/kg, or vehicle control (20% HPCD) orally, or with exendin-4 (Ex-4) at 100 μg/kg i.p. Six hours post-dosing, rats were euthanized with CO2, and stomach content was determined.

CCc1cnc(N2CCC(Oc3ncnc(Oc4ccc(S(C)(=O)=O)nc4C)c3F)CC2)nc1 [Compound 1, 4-(1-(5-ethylpyrimidin-2-yl)piperidin-4-yloxy)-5-fluoro-6-(2-methyl-6-(methylsulfonyl)pyridin-3-yloxy)pyrimidine]
Plasma Glucose, Mean (Male 129SVE mice [1]; 3 mg/kg p.o., 20 min post glucose bolus): 282.8333 mg/dL | Plasma Glucose, Mean (Male 129SVE mice [1]; 3 mg/kg p.o., 40 min post glucose bolus): 301.6667 mg/dL | Plasma Glucose, Mean (Male 129SVE mice [1]; 3 mg/kg p.o., 60 min post glucose bolus): 270.6667 mg/dL | Plasma Glucose, Mean (Male 129SVE mice [1]; 3 mg/kg p.o., 120 min post glucose bolus): 151.3333 mg/dL | Plasma Glucose, Mean (Male 129SVE mice [1]; 3 mg/kg p.o., time 0 min relative to glucose bolus (3 g/kg)): 83.83 mg/dL | Plasma Glucose, Mean (Male 129SVE mice [1]; 3 mg/kg p.o., time −30 min relative to glucose bolus (prior to compound administration)): 75 mg/dL | Plasma Glucose, Mean (Male 129SVE mice [1]; 10 mg/kg p.o., 20 min post glucose bolus): 254.3333 mg/dL | Plasma Glucose, Mean (Male 129SVE mice [1]; 10 mg/kg p.o., 40 min post glucose bolus): 276.8333 mg/dL | Plasma Glucose, Mean (Male 129SVE mice [1]; 10 mg/kg p.o., 60 min post glucose bolus): 197.8333 mg/dL | Plasma Glucose, Mean (Male 129SVE mice [1]; 10 mg/kg p.o., 120 min post glucose bolus): 134 mg/dL | Plasma Glucose, Mean (Male 129SVE mice [1]; 10 mg/kg p.o., time 0 min relative to glucose bolus (3 g/kg)): 95.67 mg/dL | Plasma Glucose, Mean (Male 129SVE mice [1]; 10 mg/kg p.o., time −30 min relative to glucose bolus (prior to compound administration)): 75.67 mg/dL | Effect on blood glucose after challenge with glucose (Male 129SVE mice [1]; 3, 10, or 30 mg/kg p.o., 30 min prior to glucose bolus (3 g/kg)): lowered blood glucose | Effect on plasma glucose levels in oGTT (Male 129SVE mice [1]; dose of 10 mg/kg): significantly reduced plasma glucose levels | Effect on GIP release (plasma total GIP) (Male 129SVE mice [2]): stimulates the release of GIP | Agonist character at GPR119 (HTRF assay) (GPR119 receptor): full agonist | % Inhibition of Glucose Excursion (Male ZDF rats; 3 mg/kg p.o.): 19.1% | % Inhibition of Glucose Excursion (Male ZDF rats; 10 mg/kg p.o.): 30.2% | % Inhibition of Glucose Excursion (Male ZDF rats; 30 mg/kg p.o.): 60.7% | Effect on blood glucose after a challenge with glucose (Male ZDF rats; diabetic ZDF rats, 3, 10, or 30 mg/kg p.o.): lowered blood glucose | Effect on gastric emptying (Male SD rats): no significant effect on gastric emptying

N[C@@H](CC(=O)N1CCn2c(nnc2C(F)(F)F)C1)Cc1cc(F)c(F)cc1F [Januvia, 3(R)-amino-1-[3-(trifluoromethyl)-5,6,7,8-tetrahydro[1,2,4]triazolo[4,3-a]pyrazin-7-yl]-4-(2,4,5-trifluorophenyl)butan-1-one phosphate, reference compound]
% Inhibition of Glucose Excursion (Male ZDF rats; 3 mg/kg p.o.): 54.2%
